We go through 6 molecules from ChEMBL document CHEMBL1641381, “Rapid access to new bioconjugates of betulonic acid via click chemistry” (2011).

What all share (format): functional
In assay [1] the test system is Mus musculus. In words: Antiinflammatory activity against histamine-induced mouse edema model assessed as antiinflammatory effect 20 mg/kg, po (untreated control = 0%).
The subject of assay [2] is Mus musculus. In words: Antiinflammatory activity against histamine-induced mouse edema model assessed as inflammation index 20 mg/kg, po (untreated control = 32.6+/-3.1%).
Assay [3] deals with Mus musculus. Kind of assay: Antiinflammatory activity against histamine-induced mouse edema model assessed as edema size 20 mg/kg, po (untreated control = 100%).
The subject of assay [4] is Mus musculus. In words: Antiinflammatory activity against histamine-induced mouse edema model assessed as edema size 50 mg/kg, po (untreated control = 100%).
For assay [5], the system named is Mus musculus. Kind of assay: Antioxidant activity agains CCl4-induced hepatitis mouse model at 20 mg/kg, po (untreated control = 0%).
The test system of assay [6] is Mus musculus. Kind of assay: Antioxidant activity agains CCl4-induced hepatitis mouse model assessed as TBARS level in serum at 20 mg/kg, po (untreated control = 100%).
The test system of assay [7] is Mus musculus. In words: Antiinflammatory activity against histamine-induced mouse edema model assessed as antiinflammatory effect 50 mg/kg, po (untreated control = 0%).
In assay [8] the test system is Mus musculus. Kind of assay: Antiinflammatory activity against histamine-induced mouse edema model assessed as inflammation index 50 mg/kg, po (untreated control = 32.6+/-3.1%).

With `COc1ccc2c(c1)c(CC(=O)O)c(C)n2C(=O)c1ccc(Cl)cc1` [INDOMETHACIN], the Activity in assay [1] came out at 63%; in assay [2], 12.2%. In assay [3], the level, % of control at 20 mg/kg came out at 37.4%.

Turning to `C=C(C)[C@@H]1CC[C@]2(C(=O)Nc3ccc(-c4cn(CCCCCC)nn4)cc3)CC[C@]3(C)[C@H](CC[C@@H]4[C@@]5(C)CCC(=O)C(C)(C)[C@@H]5CC[C@]43C)[C@@H]12`, the Activity in assay [1] is 11%; in assay [2], 29%; in assay [5] it was 34%; in assay [6] it was 66%; in assay [7], 13%; in assay [8] it was 28.4%. For the same molecule, the level, % of control at 50 mg/kg in assay [4] stood at 87.1%. The level, % of control at 20 mg/kg in assay [3] was 89%.

On to `O=C1c2c(O)cc(O)cc2O[C@H](c2ccc(O)c(O)c2)[C@H]1O` [(+)-TAXIFOLIN], for which the Activity in assay [5] is 43%; in assay [6] it was 57%.

`C=C(C)[C@@H]1CC[C@]2(C(=O)Nc3ccc(-c4cn(-c5ccc(OC)cc5)nn4)cc3)CC[C@]3(C)[C@H](CC[C@@H]4[C@@]5(C)CCC(=O)C(C)(C)[C@@H]5CC[C@]43C)[C@@H]12`: the Activity in assay [1] is 21%; in assay [2] it was 25.6%; in assay [5] it was 59%; in assay [6] it was 41%; in assay [7], 22%; in assay [8], 25.4%. The level, % of control at 50 mg/kg in assay [4] amounted to 77.9%. For the same molecule, the level, % of control at 20 mg/kg in assay [3] came out at 78.5%.

Take `C=C(C)[C@@H]1CC[C@]2(C(=O)Nc3ccc(-c4cn(Cc5ccccc5)nn4)cc3)CC[C@]3(C)[C@H](CC[C@@H]4[C@@]5(C)CCC(=O)C(C)(C)[C@@H]5CC[C@]43C)[C@@H]12`: the Activity in assay [1] came out at 0%; in assay [2] it was 34.1%; in assay [5], 42%; in assay [6], 58%; in assay [7], 21%; in assay [8] it was 25.6%. Besides, in assay [4], the level, % of control at 50 mg/kg came out at 78.5%. Moreover, the level, % of control at 20 mg/kg in assay [3] came to 105%.

On to `C=C(C)[C@@H]1CC[C@]2(C(=O)Nc3ccc(-c4cn(-c5ccc(C(C)=O)cc5)nn4)cc3)CC[C@]3(C)[C@H](CC[C@@H]4[C@@]5(C)CCC(=O)C(C)(C)[C@@H]5CC[C@]43C)[C@@H]12`, for which the Activity in assay [1] is 0%; in assay [2] it was 35.4%; in assay [5], 60%; in assay [6], 40%; in assay [7], 26%; in assay [8], 24.2%. For the same molecule, the level, % of control at 50 mg/kg in assay [4] was found to be 74.2%. Besides, the level, % of control at 20 mg/kg in assay [3] is 109%.
